Here are results for two compounds from US11672775B2, “Treprostinil prodrugs” (United Therapeutics Corporation, priority 2016, dated 2023).

Series [1] in a line: In vitro metabolic stability in liver microsomes. To be noted: Monkey; +NADPH.
Series [2] in a line: In vitro metabolic stability in liver microsomes. To be noted: Rat.
A further series in a line: in vitro. To be noted: monkey, liver microsomes, pH 7.4.
Series [3] has as its system Sprague Dawley rats. Briefly: Cardiovascular assessment by radiotelemetry following subcutaneous injection (Example 12). It counts as in vivo, Sprague Dawley rat. The protocol:
(§1) Clinical observations were performed at approximately 6 hours prior to dosing, at the completion of dosing and at approximately 4 hours postdosing.

Series [4] concerns Sprague Dawley rats. The experiment in a line: Rat intraplantar injection model, clinical observation score (Example 9). In kind it is in vivo, Sprague Dawley rat. The procedure:
(§2) Male Sprague Dawley rats (n=112) were allocated into 14 groups of 8/group. The study was run in 2 cycles, on consecutive days, 7 groups per cycle. Each cycle was composed of a Saline group, PBS group, which served as the control, and also treprostinil at a dose of 100 μg/mL or 1 μg/mL.
(§3) Animals were administered 0.1 mL of test material by subcutaneous injection into the paw pad (Intraplantar injection) at time zero. Animals were subsequently evaluated for their response to mechanical (von Frey filaments) and thermal stimuli, 15 and 90 minutes post-injection. The von Frey test was conducted prior to the thermal test, which followed immediately within minutes for each animal. In addition, clinical observation scoring of the animal's reaction to injection was conducted. FIG. 16 schematically illustrates the study design.
A Clinical observation score was assigned by assessing for redness, swelling and paw placement.

Series [5] deals with Sprague Dawley rats. Briefly: Rat intraplantar injection model, thermal pain sensitivity (Example 10). In kind it is in vivo, Sprague Dawley rat. The protocol:
(§4) Male Sprague Dawley rats (n=56) were allocated into 7 groups of 8 animals per group. […] Each group was compared to the phosphate buffer (50-mM phosphate buffer with 50-mM sodium chloride at pH=7.4) treated group, which served as the control (Group 1).
(§5) Animals were administered 0.1 mL of test material by subcutaneous injection into the paw pad (Intraplantar injection) at time zero. Then, the animals were subsequently evaluated for their response to mechanical (von Frey filaments) and thermal stimuli, 15 and 90 minutes post-injection. The von Frey test was conducted prior to the thermal test, which followed immediately within minutes for each animal. In addition, clinical observation scoring of the animal's reaction to injection was conducted.
The sensitivity of animals to a thermal pain stimulus was assessed immediately following the von Frey test. The time until withdrawal of the right-injected leg from a heat source was measured, and the lower (faster) the time of response represents a greater sensitivity to the stimulus. The test was performed 15 and 90 minutes post-test item injection.

Series [6] relates to Sprague Dawley rats. Briefly: Rat intraplantar injection model, thermal pain sensitivity (Example 9). It counts as in vivo, Sprague Dawley rat. To be noted: 100 μg/mL; both time points. The procedure:
as §2, §3
The sensitivity of animals to a thermal pain stimulus was assessed immediately following the von Frey test. The time until withdrawal of the right-injected leg from a heat source was measured, and the lower (faster) the time of response represents a greater sensitivity to the stimulus. The test was performed 15 and 90 minutes post-Test Item injection.

Series [7] relates to Sprague Dawley rats. The experiment in a line: Rat intraplantar injection model, von Frey test (Example 10). To be noted: 1 μg/mL or 100 μg/mL; 15 and 90 minutes post-injection. It counts as in vivo, Sprague Dawley rat. The procedure: as §4, §5
Mechanical pain sensitivity was tested using the von Frey test, which measures the withdrawal force threshold of the animals. The lower the force applied represents a greater sensitivity to the stimulus. The von Frey test was performed 15 and 90 minutes post-test item injection.

The test system of series [8] is Sprague Dawley rats. Briefly: Rat intraplantar injection model, clinical observation score (Example 10). In kind it is in vivo, Sprague Dawley rat. To be noted: 1 μg/mL; both time-points; compared with similar dose of treprostinil. The procedure:
as §4, §5
A clinical observation score was assigned by assessing for redness, swelling and paw placement.

Series [9] relates to Sprague Dawley rats. The experiment in a line: Clinical observations following subcutaneous injection (Example 12). In kind it is in vivo, Sprague Dawley rat. To be noted: 3, 10, or 30 mg/kg SC; some animals; approximately 4 hours. The procedure:
as §1

The test system of series [10] is Sprague Dawley rats. The experiment in a line: Rat intraplantar injection model, von Frey test (Example 9). In kind it is in vivo, Sprague Dawley rat. To be noted: for von Frey withdrawal force threshold vs PBS-treated group: both time points post-injection. The protocol: as §2, §3
Mechanical pain sensitivity was tested using the von Frey test, which measures the withdrawal force threshold of the animals. The lower the force applied represents a greater sensitivity to the stimulus. The von Frey test was performed 15 and 90 minutes post-Test Item injection.

Setting [11] is: only the 1 μg/mL dose, both time points.

`CCOc1ccc2ccc(=O)oc2c1` [Prodrug 7-EC, 7-ethoxycoumarin]: the Half-life is on record as 2.00 min in series [1], 5.89 min in series [2] (+NADPH) and more than 360 min in series [2] (−NADPH). In the series “in vitro”, this compound displayed a half-life at 500 nM of more than 360 min.

Take `CCCCC[C@H](O)CC[C@@H]1[C@H]2Cc3cccc(OCC(=O)NCC(=O)O)c3C[C@H]2C[C@H]1O` [Prodrug VII]: in the series on Sprague Dawley rats [3] (0.1 mg/kg SC (for Prodrug VII)), the “diastolic blood pressure change” value is given as “No meaningful change”, the “mean blood pressure change” value is on record as “No meaningful change” and the “systolic blood pressure change” value is listed as “No meaningful change”. Further, the body temperature change result in the series with Sprague Dawley rats [3] (1 mg/kg SC) was “No significant changes”. Moreover, in the series with Sprague Dawley rats [3] (3 mg/kg SC), the “diastolic blood pressure change” value was “Marginally lower”; the “diastolic blood pressure lowering persisted through” value turned out to be 80 min; the “diastolic blood pressure, time of nadir” value came to 50 min; the “hypothermic response persisted through” value worked out at 4 h. In the series on Sprague Dawley rats [3] (3 mg/kg SC), the “mean blood pressure change” value is listed as “Marginally lower”; the “mean blood pressure, time of nadir” value came to 50 min; the “systolic blood pressure change” value is “Marginally lower”; the “systolic blood pressure, time of nadir” value stood at 50 min. Also, in the series on Sprague Dawley rats [3] (10 mg/kg SC), the “diastolic hypotension persisting through” value is given as “approximately 4 hours”, the “mean blood pressure hypotension persisting through” value is on record as “approximately 4 hours”, the pulse pressure change entry is “Marginally higher” and the “systolic hypotension persisting through” value is “approximately 4 hours”. In the series on Sprague Dawley rats [3] (30 mg/kg SC), the “systolic hypotension persisting through” value was approximately 6 h and the “time without recovery of body temperature” value is more than 24 h. Also, in the series on Sprague Dawley rats [3] (3, 10, and 30 mg/kg SC), the body temperature change entry is given as “Significantly lower”. For the same compound, in the series on Sprague Dawley rats [3] (10 and 30 mg/kg SC), the “diastolic blood pressure change” value was “Significantly lower”; the “diastolic blood pressure, earliest time point of lowering” value worked out at 20 min; the “diastolic blood pressure, time of nadir” value worked out at 40 min; the “mean blood pressure change” value is reported as “Significantly lower”. Moreover, in the series with Sprague Dawley rats [3] (10 and 30 mg/kg SC), the “mean blood pressure, time of nadir” value was 40 min; the “systolic blood pressure change” value is on record as “Significantly lower”; the “systolic blood pressure, earliest time point of lowering” value was 20 min; the “systolic blood pressure, time of nadir” value was determined as 40 min. In the series on Sprague Dawley rats [3] (single SC injection), the “dose resulting in significantly lower body temperature” value is listed as not below 3 mg/kg and the “dose resulting in significantly lower systolic, diastolic, mean arterial blood pressure” value is on record as not below 3 mg/kg. In addition, in the series with Sprague Dawley rats [3] (single SC injection, all doses), the heart rate change entry is on record as “Higher heart rates”. Besides, in the series with Sprague Dawley rats [4] (100 μg/mL (cycle 1), 15 min), the clinical score entry is listed as “non-zero”. Further, in the series on Sprague Dawley rats [4] (100 μg/mL (cycle 1), 90 minutes post-injection), the “clinical score vs PBS group” value is recorded as “non-zero”. Further, the “clinical score vs PBS group” value in the series on Sprague Dawley rats [4] (100 μg/mL, both time points) was “statistically significant increase in the clinical score”. For the same compound, the “clinical score vs similar dose of treprostinil” value with Sprague Dawley rats [4] (setting [11]) is “reduced clinical score”. The “sensitivity to thermal stimulation” value in the series with Sprague Dawley rats [5] (1 μg/mL, both time-points, compared with similar dose of treprostinil) is recorded as “reduced sensitivity to thermal stimulation”. In the series on Sprague Dawley rats [5] (100 μg/mL, 15 minutes post-administration), the “thermal paw withdrawal time vs phosphate buffer treated group” value is reported as “statistically significantly faster paw withdrawal time”. Further, the “thermal paw withdrawal time vs PBS group” value in the series on Sprague Dawley rats [6] is given as “trend toward reduction in the time of response”. Further, in the series with Sprague Dawley rats [7], the “von Frey withdrawal force threshold vs phosphate buffer group” value is given as “reduced withdrawal force threshold”. Besides, the clinical score entry in the series on Sprague Dawley rats [8] is given as “lower values of clinical score”. Further, the clinical observations entry with Sprague Dawley rats [9] was “flushed body and/or extremities, piloerection, hypoactivity, reddened forelimb(s) and/or hindlimb(s), wet yellow material on the urogenital area and ventral trunk, and dried red material around nose”. For the same compound, the “von Frey withdrawal force threshold vs PBS-treated group” value with Sprague Dawley rats [10] (1 μg/mL) is “no statistically significant difference”. Moreover, the “von Frey withdrawal force threshold vs PBS-treated group” value in the series on Sprague Dawley rats [10] (100 μg/mL) was “statistically significant increased sensitivity”. The “sensitivity to mechanical stimulation vs similar dose of treprostinil” value with Sprague Dawley rats [10] (setting [11]) is reported as “reduced sensitivity”.
